Non-standard residues stand in square brackets, D forms with d. Residues, ends and D or L forms follow the SMILES beside them.
Columns and labels:
[1] = biological target: bradykinin receptor B2 (Homo sapiens, UniProt P30411); settings: patients with painful knee osteoarthritis, intra-articular; cited from earlier work
[2] = system: rat anterior cruciate ligament transection (ACLT) model of osteoarthritis; test: Cartilage and bone histomorphology (Safranin O/Fast Green) with OARSI histopathology scoring; assay type: in vivo; settings: ACLT rats, eight weeks post-operatively, maximum value 24
Procedure: After radiological examination, knee samples were fixed in 10% neutral buffered formalin for two weeks, decalcified with RDO Rapid Decalcifier™ (Apex Engineering Products, Aurora, Ill.) for three days, circulated, and embedded in paraffin. Five-micron sagittal sections were acquired from the middle of the knee joint. Histomorphological staining was performed as previously described [Rosenberg L: Chemical basis for the histological use of safranin O in the study of articular cartilage. J Bone Joint Surg Am 1971, 53:69-82]: slides were deparrafinized, rehydrated, stained with Safranin O (which colours proteoglycans red) and Fast Green FCF (which colours collagens green), counterstained with hematoxylin, dehydrated, cleared, and mounted in Permount™. […]
Four slides from each condition were scored by two blinded examiners using the Osteoarthritis Research Society International (OARSI) histopathology assessment system [Pritzker K P H, Gay S, Jimenez S A, Ostergaard K, Pelletier J P, Revell P A, Salter D, van den Berg W B: Osteoarthritis cartilage histopathology: grading and staging. […]
OARSI scores were statistically analyzed by one-way ANOVA, with total scores taken as the dependent variable and treatment group as the independent variable. […]

[3] = system: rat anterior cruciate ligament transection (ACLT) model of osteoarthritis; test: Digital micro-X-ray (DX) OA radiological scoring of knee joints; assay type: in vivo; settings: ACLT rats; for Mean radiological score: DX views, maximum possible score nine; for radiological indices of disease progression (DX) versus saline-treated controls: 0.0020≦P≦0.0214
Source text: (§1) At four or eight weeks post-surgery, animals were sacrificed by cardiac puncture under deep isoflurane anaesthesia. The right knee was dissected, and 40-mm-long samples were cut and stored in phosphate-buffered saline until scanned by digital micro-X-ray (DX) and/or micro-magnetic resonance (MR) imaging. Samples were dissected the same day as the radiological scans.
All knee samples were X-rayed using a Faxitron MX-20™ specimen X-ray system (Faxitron X-Ray Corporation, Lincolnshire, Ill.). Anteroposterior and lateral views were acquired at 5× magnification (10×10 μm pixel size) using a dose of 26 kV for 6 seconds. Images were analyzed using OsiriX™ software (version 3.7.1) [Rosset et al. OsiriX: an open-source software for navigating in multidimensional DICOM images. Journal of digital imaging (2004) 17(3): 205-16]. Radiological evidence of joint degradation, such as joint space narrowing and osteophyte formation, was evaluated. Radiological evidence of joint degradation was scored by two blinded examiners using an OA radiological score modified from Clark et al. [Clark R L, Cuttino JT Jr, Anderle S K, Cromartie W J, Schwab J H: Radiologic analysis of arthritis in rats after systemic injection of streptococcal cell walls. Arthritis Rheum 1979, 22:25-35.] and Esser et al. [Esser R E, Hildebrand A R, Angelo R A, Watts L M, Murphey M D, Baugh L E: Measurement of radiographic changes in adjuvant-induced arthritis in rats by quantitative image analysis. Arthritis Rheum 1995, 38:129-38.]. Bone demineralization, subchondral bone erosion, and heterotopic ossification were all scored on a scale from zero (normal) to three (marked degenerative changes). Total scores were calculated by summing the individual scores for each index, with a maximum possible score of nine.
OA radiological scores were statistically analyzed by one-way ANOVA, with total scores taken as the dependent variable and treatment group as the independent variable. Pairwise post-hoc testing with Holm correction was used to establish significance in between treatment groups. P-values less than 0.05 were considered statistically significant. Analyses were conducted using R (version 2.11.0) [R Development Core Team: R: A Language and Environment for Statistical Computing. Vienna, Austria: R Foundation for Statistical Computing 2010.].

[4] = system: COX-2; test: COX-2 immunohistochemistry on articular cartilage of surgically induced OA; assay type: in vivo, rat; settings: surgery-induced OA rats
Source text: FIGS. 11A-11D are photomicrographs depicting the effect of BQ-123+R-954 dual inhibition. […] Tissues were obtained from surgery induced OA in a rat model Top panel represent COX-2 immunodetection on tissues from non-treated lesioned animals (FIG. 11A); BQ-123 treatment (FIG. 11B); R-954 treatment (FIG. 11C); BQ-123+R-954 dual treatment (FIG. 11D). Specific immune staining for COX-2 protein is observed as a darker color. Surgery, pharmacological treatment, and tissue collection and processing were performed as described in Kaufman et al., Arthritis Research and Therapy, 2011, 13:R76. FIG. 11E is a bar graph depicting the percentage of COX-2-positive chondrocytes in each of the conditions (mean of 5 slides counted per condition).
Method: 5-micron sections were processed for immunohistochemical detection of cyclooxygenase COX-2 as described above.

[5] = system: articular cartilage of ACLT rat knee; test: Micro-magnetic resonance imaging of knee, cartilage mean T2; assay type: in vivo; settings: ACLT rats, four weeks post-operatively; statistical significance between groups not achieved
Source text: as §1
A subset of animals were sacrificed four weeks post-operatively and their right knees were imaged by micro-MR. Imaging was performed using a Bruker PharmaScan™ (Ettlingen, Germany) 7 Tesla MR scanner at the McGill University Small Animal Imaging Lab (Montreal, QC). Knee samples were placed in a custom-made support inside a 15-mL centrifuge tube, which was then filled with the MR-inert buffer FC-770™ (3M Fluorinert™ Electronic Liquid). Samples were introduced into a 1H mouse brain radio frequency (RF) coil (inner diameter 22 mm), and centred in the magnet. The RF coil was tuned and matched to the sample, and the magnet was then shimmed. The system was controlled via Bruker ParaVision™ software (version 5.0). […]
After acquisition, images were analyzed using OsiriX software (version 3.7.1). […] As well, images were analyzed for signs of cartilage decay, indicated by lower signal intensity of the articular surfaces. […]

bradykinin receptor B2, sequence (P30411 whole entry): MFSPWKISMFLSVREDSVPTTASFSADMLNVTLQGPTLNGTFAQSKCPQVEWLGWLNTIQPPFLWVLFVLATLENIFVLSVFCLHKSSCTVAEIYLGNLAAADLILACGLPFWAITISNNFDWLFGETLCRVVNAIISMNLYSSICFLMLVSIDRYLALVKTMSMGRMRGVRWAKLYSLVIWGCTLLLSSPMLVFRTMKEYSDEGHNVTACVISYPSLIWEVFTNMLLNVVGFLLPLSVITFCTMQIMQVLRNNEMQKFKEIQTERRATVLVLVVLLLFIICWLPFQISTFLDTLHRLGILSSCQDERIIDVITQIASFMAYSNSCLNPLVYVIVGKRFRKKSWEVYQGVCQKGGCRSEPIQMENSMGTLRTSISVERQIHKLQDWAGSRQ

Row | Structure (SMILES) | analgesia in knee OA [1] | anti-inflammatory effect in knee OA [1] | Mean OARSI score [2] | Mean radiological score [3] | radiological indices of disease progression (DX) versus saline-treated controls [3] | COX-2 staining on articular cartilage [4] | Mean T2 value [5] [ms]
1 | NC(N)=NCCC[C@@H](N)C(=O)N[C@@H](CCCN=C(N)N)C(=O)N1CCC[C@H]1C(=O)N1C[C@H](O)C[C@H]1C(=O)NCC(=O)N[C@@H](Cc1cccs1)C(=O)N[C@@H](CO)C(=O)N1Cc2ccccc2C[C@@H]1C(=O)N1[C@H](C(=O)N[C@@H](CCCN=C(N)N)C(=O)O)C[C@@H]2CCCC[C@@H]21 [Icatibant] | provided local analgesia | no anti-inflammatory effect could be detected |  |  |  |  | 
2 | CC(C)C[C@@H]1NC(=O)[C@@H](C(C)C)NC(=O)[C@@H]2CCCN2C(=O)[C@@H](CC(=O)O)NC(=O)[C@@H](Cc2c[nH]c3ccccc23)NC1=O [BQ-123] (cyclo(L[dW][dD]P[dV])) |  |  | 10.25 | 2.83 | significantly ameliorated radiological indices of disease progression | diminished | 61.13
3 | C=C(N)NCC[C@@H](CC(=O)[C@@H](CCCC)CC(C)=O)C(=O)N1[C@H]2CCCC[C@@]2(C)C[C@H]1C(=O)N1CCC[C@@H]1C(=O)CCC(=O)NC(C)(Cc1ccccc1)C(=O)NC(CO)C(=O)C[C@H](Cc1cccc2ccccc12)C(=C)CC(C(=O)O)[C@H](C)CC (some centres unmarked) [R-954] |  |  | 4.25 | 2.50 | significantly ameliorated radiological indices of disease progression |  | 64.38
